According to patent US9302999B2, “Substituted triazoles as herbicides” (E. I. DU PONT DE NEMOURS AND COMPANY, priority 2012, dated 2016):

What was measured:
Assay type in all cases: in vivo
[1] = test system: foxtail, green (green foxtail, Setaria viridis); experiment: Test C pre-/postemergence: foxtail, green
Summary of the method: (§1)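 Visual injury scored 0–100 (100 = complete control) against untreated controls after 13–15 greenhouse days. Surfactant-containing solvent formulations applied either to soil after sowing (loam/sand) or over 1- to 4-leaf plants, 2–18 cm tall.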

[2] = test system: bermudagrass (Cynodon dactylon); experiment: Test C pre-/postemergence: bermudagrass
Summary of the method: as §1

[3] = test system: surinam grass (Brachiaria decumbens); experiment: Test C pre-/postemergence: surinam grass
Summary of the method: as §1

[4] = test system: cocklebur (common cocklebur, Xanthium strumarium); experiment: Test C pre-/postemergence: cocklebur
Summary of the method: as §1

[5] = test system: woolly cupgrass (Eriochloa villosa); experiment: Test C pre-/postemergence: woolly cupgrass
Summary of the method: as §1

[6] = test system: goosegrass (Eleusine indica); experiment: Test C pre-/postemergence: goosegrass
Summary of the method: as §1

[7] = test system: common (oilseed) sunflower (Helianthus annuus); experiment: Test C pre-/postemergence: sunflower; details: Preemergence
Summary of the method: as §1

[8] = test system: barley (winter barley, Hordeum vulgare); experiment: Test C postemergence: barley
Summary of the method: (§2)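 Visual ratings of 0 (no effect) to 100 (complete control) were made against controls 13-15 days after a postemergence spray, with plants kept in a greenhouse. Plants were 2-18 cm tall (1- to 4-leaf stage) in Redi-Earth peat/vermiculite medium at treatment.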

[9] = test system: canarygrass (Phalaris minor); experiment: Test C postemergence: canarygrass
Summary of the method: as §2

[10] = test system: windgrass (Apera spica-venti); experiment: Test C postemergence: windgrass
Summary of the method: as §2

[11] = Postemergence, 31 g ai/ha, scale 0 to 100 (0 no effect, 100 complete control)
[12] = Postemergence, 62 g ai/ha, scale 0 to 100 (0 no effect, 100 complete control)
[13] = Postemergence, 125 g ai/ha, scale 0 to 100, 0 no effect, 100 complete control
[14] = Postemergence, 250 g ai/ha, scale 0 to 100
[15] = Preemergence, 31 g ai/ha, scale of 0 to 100, 0 is no effect, 100 is complete control
[16] = Preemergence, 62 g ai/ha, scale of 0 to 100, 0 is no effect, 100 is complete control
[17] = Preemergence, 250 g ai/ha, scale 0 to 100, 0 no effect, 100 complete control
[18] = Preemergence, 125 g ai/ha, scale 0 to 100, 0 no effect, 100 complete control
[19] = 31 g ai/ha, scale of 0 to 100, 0 is no effect, 100 is complete control
[20] = 62 g ai/ha, scale of 0 to 100, 0 is no effect, 100 is complete control
[21] = 125 g ai/ha, scale 0 to 100, 0 no effect, 100 complete control
[22] = 250 g ai/ha, scale 0 to 100, 0 no effect, 100 complete control
[23] = 31 g ai/ha, scale 0 to 100 (0 no effect, 100 complete control)
[24] = 62 g ai/ha, scale 0 to 100 (0 no effect, 100 complete control)

COc1nn(-c2cccc(F)c2)nc1Cc1ccnc(C(F)(F)F)c1 [Compound 139]
90: Plant response rating, Foxtail, Green [1, 15] | Plant response rating, Foxtail, Green [1, 16] | Plant response rating, Foxtail, Green [1, 17] | Plant response rating, Cupgrass, Woolly [5, 17]
100: Plant response rating, Foxtail, Green [1, 13] | Plant response rating, Foxtail, Green [1, 14] | Plant response rating, Bermudagrass [2, 16] | Plant response rating, Bermudagrass [2, 18] | Plant response rating, Bermudagrass [2, 17] | Plant response rating, Goosegrass [6, 16] | Plant response rating, Goosegrass [6, 18] | Plant response rating, Goosegrass [6, 17]
10: Plant response rating, Surinam Grass [3, 11] | Plant response rating, Sunflower [7, 22] | Plant response rating, Barley [8, 24]
65: Plant response rating, Surinam Grass [3, 16]
98: Plant response rating, Bermudagrass [2, 15] | Plant response rating, Surinam Grass [3, 17] | Plant response rating, Goosegrass [6, 15]
15: Plant response rating, Surinam Grass [3, 15] | Plant response rating, Cupgrass, Woolly [5, 11] | Plant response rating, Goosegrass [6, 11]
75: Plant response rating, Cupgrass, Woolly [5, 18]
80: Plant response rating, Bermudagrass [2, 14] | Plant response rating, Goosegrass [6, 14] | Plant response rating, Canarygrass ([9]; 250 g ai/ha, scale 0 to 100) | Plant response rating, Windgrass [10, 21]
30: Plant response rating, Cupgrass, Woolly [5, 12] | Plant response rating, Cupgrass, Woolly [5, 15]
35: Plant response rating, Bermudagrass [2, 11] | Plant response rating, Surinam Grass [3, 12] | Plant response rating, Surinam Grass [3, 13] | Plant response rating, Barley [8, 21]
85: Plant response rating, Surinam Grass [3, 18]
0: Plant response rating, Cocklebur [4, 16] | Plant response rating, Cocklebur [4, 18] | Plant response rating, Sunflower [7, 19] | Plant response rating, Sunflower [7, 20]
95: Plant response rating, Foxtail, Green [1, 11] | Plant response rating, Foxtail, Green [1, 12]
55: Plant response rating, Bermudagrass [2, 13]
40: Plant response rating, Bermudagrass [2, 12] | Plant response rating, Surinam Grass [3, 14] | Plant response rating, Cupgrass, Woolly [5, 16] | Plant response rating, Goosegrass [6, 12] | Plant response rating, Barley ([8]; 250 g ai/ha, scale 0 to 100) | Plant response rating, Canarygrass [9, 23]
45: Plant response rating, Canarygrass [9, 24]
5: Plant response rating, Cocklebur [4, 17] | Plant response rating, Sunflower [7, 21] | Plant response rating, Barley [8, 23]
50: Plant response rating, Cupgrass, Woolly [5, 13] | Plant response rating, Windgrass [10, 23]
70: Plant response rating, Windgrass [10, 24]
60: Plant response rating, Goosegrass [6, 13] | Plant response rating, Canarygrass [9, 21]

FC(F)(F)COc1nn(-c2ccc(C(F)(F)F)cc2)nc1Cc1ccnc(C(F)(F)F)c1 [Compound 14, 4-[[5-(2,2,2-trifluoroethoxy)-2-[4-(trifluoromethyl)phenyl]-2H-1,2,3-triazol-4-yl]methyl]-2-(trifluoromethyl)pyridine]
0: Plant response rating, Bermudagrass [2, 11] | Plant response rating, Cocklebur [4, 15] | Plant response rating, Sunflower [7, 19] | Plant response rating, Sunflower [7, 20] | Plant response rating, Sunflower [7, 21]
85: Plant response rating, Surinam Grass [3, 17] | Plant response rating, Canarygrass [9, 21] | Plant response rating, Canarygrass ([9]; 250 g ai/ha, scale 0 to 100)
45: Plant response rating, Surinam Grass [3, 16] | Plant response rating, Cocklebur [4, 13] | Plant response rating, Cocklebur [4, 17]
60: Plant response rating, Surinam Grass [3, 18] | Plant response rating, Goosegrass [6, 13]
100: Plant response rating, Foxtail, Green [1, 16] | Plant response rating, Foxtail, Green [1, 18] | Plant response rating, Foxtail, Green [1, 17] | Plant response rating, Bermudagrass ([2]; Preemergence, 62 g ai/ha, scale 0 to 100, 0 no effect, 100 complete control) | Plant response rating, Bermudagrass [2, 18] | Plant response rating, Bermudagrass [2, 17] | Plant response rating, Goosegrass [6, 16] | Plant response rating, Goosegrass [6, 18] | Plant response rating, Goosegrass [6, 17]
20: Plant response rating, Surinam Grass [3, 15] | Plant response rating, Cocklebur [4, 18]
98: Plant response rating, Bermudagrass [2, 15] | Plant response rating, Goosegrass [6, 15]
70: Plant response rating, Foxtail, Green [1, 11] | Plant response rating, Windgrass [10, 23]
50: Plant response rating, Barley [8, 21] | Plant response rating, Barley ([8]; 250 g ai/ha, scale 0 to 100)
80: Plant response rating, Foxtail, Green [1, 15] | Plant response rating, Cupgrass, Woolly [5, 17] | Plant response rating, Canarygrass [9, 24]
15: Plant response rating, Bermudagrass [2, 12] | Plant response rating, Sunflower [7, 22]
65: Plant response rating, Bermudagrass [2, 14] | Plant response rating, Cupgrass, Woolly [5, 14]
55: Plant response rating, Bermudagrass [2, 13] | Plant response rating, Surinam Grass [3, 14] | Plant response rating, Canarygrass [9, 23]
95: Plant response rating, Windgrass [10, 21] | Plant response rating, Windgrass ([10]; 250 g ai/ha, scale 0 to 100)
35: Plant response rating, Cupgrass, Woolly [5, 13] | Plant response rating, Barley [8, 24]
30: Plant response rating, Surinam Grass [3, 13] | Plant response rating, Barley [8, 23]
90: Plant response rating, Foxtail, Green [1, 13] | Plant response rating, Foxtail, Green [1, 14] | Plant response rating, Windgrass [10, 24]
5: Plant response rating, Surinam Grass [3, 11] | Plant response rating, Surinam Grass [3, 12] | Plant response rating, Cocklebur [4, 11] | Plant response rating, Cocklebur [4, 12] | Plant response rating, Cupgrass, Woolly [5, 11] | Plant response rating, Cupgrass, Woolly [5, 12] | Plant response rating, Cupgrass, Woolly [5, 15] | Plant response rating, Goosegrass [6, 11] | Plant response rating, Goosegrass [6, 12]
75: Plant response rating, Cocklebur [4, 14] | Plant response rating, Cupgrass, Woolly [5, 16] | Plant response rating, Cupgrass, Woolly [5, 18] | Plant response rating, Goosegrass [6, 14]
